Where two headings read alike, the source gives them in different places. Marks after values point to notes of the source that are not given here.
How the values were obtained:
Human PDGF-DD = settings: read-out: IC50 Calcium Flux, PDGF-DD; PASMC; 1 nM PDGF-DD constant
Experimental: (§1) Upon reaching 100% confluency within each well, PDGF driven calcium flux was assessed via the FLIPR® Calcium 5 Assay Kit on the FLIPR Tetra System (Molecular Devices) following the manufacturer's protocol. In brief, complete media was replaced with 50 μL assay media (DMEM-0.1% BSA-1× Penicillin/Streptomycin/L-Glutamine). The Calcium 5 dye was then reconstituted in the supplied buffer in the presence of probenecid. […] Human PDGF-AA, PDGF-BB and PDGF-DD serial dilutions and inhibitory constants were generated on separate dosing plates. A 0.5 nM concentration of PDGF-BB, 1 nM concentration of PDGF-DD and a 3 nM concentration of PDGF-AA were chosen as constants to assess antibody and small molecule inhibition. […] Antibodies were pre-incubated with PDGF proteins for 30 minutes before addition onto the cells via the FLIPR tetra system. […] These calcium traces were analyzed for their Max-Min values using the SoftMax Pro Software (Molecular Devices).

PDGF-DD = settings: read-out: IC50 Proliferation, PDGF-DD; PASMC; IncuCyte cell confluence at day 6
Experimental: (§2) For calcium flux and proliferation assays, primary Human Pulmonary Smooth Muscle Cells were seeded onto 96-well assay plates at a cell density of 10,000/well and 2,000/well respectively. The smooth muscle cells were cultured in supplier recommended smooth muscle media in a humidified incubator at 37° C. in 5% CO2.
(§3) Proliferation was assessed via the IncuCyte live cell imaging system (Essen BioScience). Following overnight plating, the complete media was replaced with serum free smooth muscle media supplemented with 0.1% BSA. […] Plates were imaged every 3 hours over the course of 7 days and proliferation was determined by measuring cell confluence in the well at day 6 via the IncuCyte Base Analysis software (Sartorius).

PDGF-BB [1] = molecular target: T1, PDGF-BB (Homo sapiens, UniProt P01127); assay: IncuCyte proliferation of PASMC (Example 17); assay type: cell-based; design: purchased R&D Systems 220-GMP; settings: IncuCyte cell confluence at day 6
Experimental: as §2, §3

Human PDGF-AA = assay: FLIPR calcium flux in PASMC (Example 17); assay type: cell-based; settings: 3 nM PDGF-AA constant
Experimental: as §1

PDGF-BB [2] = molecular target: T1, PDGF-BB; assay: FLIPR calcium flux in PASMC (Example 17); assay type: cell-based; design: purchased R&D Systems 220-GMP
Experimental: as §1

PDGF-AA = settings: read-out: IC50 Proliferation, PDGF-AA; PASMC; IncuCyte cell confluence at day 6
Experimental: as §2, §3

hypoxia/sugen PAH mice [3] = assay: Hypoxia/Sugen PAH mice, therapeutic treatment (Study 1); assay type: in vivo, mouse; settings: dose mg/kg: H4H13145P 25, Macitentan 30, REGN2176 25
Experimental: For the first study, 14 to 16 weeks old male humanized PDGFRβ^hu-hu mice, (MAID #1639) were used. Mice were separated into treatment groups by weight such that starting body weights were similar among different groups. […] Mice in hypoxia chamber were given VEGF receptor inhibitor Sugen5146 at 20 mg/kg subcutaneously once a week for 6 weeks. The mice were administered antibodies starting on day 21 for 3 weeks as outlined in Table 11. […] Mice were anesthetized with isoflurane and were kept at approximately 37° C. using a heated platform (Heated Hard Pad 1, Braintree Scientific) and circulating heated water pump (T/Pump Classic, Gaymar Industries). The neck area for each mouse was prepared for surgery by depilating over the right common Carotid artery and right Jugular vein. An incision was made, and the right Jugular vein was isolated with care as to not damage the Carotid artery and/or the Vagus nerve. […] The catheter was connected to pressure/volume instrument (MPVS-300, Millar Instruments, Inc.) that measured heart rate as well as both diastolic and systolic right ventricular pressures. […] The parameters analyzed were right ventricular systolic pressures (RVSP), heart rate (HR) and rate of right ventricular pressure rise (dP/dt max). […] RV hypertrophy was calculated by Fulton index as the weight ratio of RV and (LV+septum). […]

monocrotaline rats [4] = assay: 4 weeks Monocrotaline PAH rats, preventive treatment (Example 10 study 1); assay type: in vivo, rat
Experimental: Six to seven weeks old male Sprague Dawley rats were used. Rats were separated into treatment groups such that body weights were similar among different groups. […] Standard of care group was orally administered macitentan at 30 mg/kg daily for 28 days. At day one, rats were subcutaneously administered either 40 mg/kg of monocrotaline or 5 mL/kg of saline. By the end of day 28, right ventricular systolic pressure (RVSP) was measured by right heart catheterization and RV hypertrophy was calculated by Fulton index as the weight ratio of RV and (LV+septum). In study 2, rats were subcutaneously administered either 60 mg/kg of monocrotaline or 5 mL/kg of saline. […] Body weight change from day 0-35 were used for general toxicity assessment and animal mortality was calculated by day 35.
Rats were anesthetized with isoflurane and were kept at approximately 37° C. using a heated platform (Heated Hard Pad 1, Braintree Scientific) and circulating heated water pump (T/Pump Classic, Gaymar Industries). The neck area for each rat was prepared for surgery by depilating over the right common Carotid artery and right Jugular vein. An incision was made and the right Jugular vein was isolated with care as to not damage the Carotid artery and/or the Vagus nerve. A piece of 5-0 silk suture was placed under the isolated Jugular vein to allow for retraction of the vessel cranially, then a 23-gauge needle was used to introduce a hole into the Jugular vein. A pressure catheter (Micro-tip catheter transducer SPR-1000, Millar Instruments, Inc.) was inserted into the opening of the Jugular vein and advanced past the right atrium into the right ventricle. The catheter was connected to pressure/volume instrument (MPVS-300, Millar Instruments, Inc.) that measured heart rate as well as both diastolic and systolic right ventricular pressures. These parameters were digitally acquired using a data acquisition system (PowerLab 4/35, AD Instruments). LabChart Pro 7.0 software (AD Instruments) was used to analyze right ventricular pressures. Readings were quantified from a 60 second interval of the pressure tracing (following a 2 minute period of recording to allow for pressure stabilization). The parameters analyzed were right ventricular systolic pressures (RVSP), heart rate (HR) and rate of right ventricular pressure rise (dP/dt max).
After the in vivo hemodynamic measurements, animals were euthanized by exsanguinations under anesthesia and then RV free wall, left ventricle (LV) and septum tissue were harvested and weighted. RV hypertrophy was calculated by Fulton index as the weight ratio of RV and (LV+septum). Then, RV tissue was saved frozen (−80° C.) for biochemical analyses.

monocrotaline rats [5] = assay: Study #2, 5 weeks Monocrotaline severe PAH rats survival (Example 19); assay type: in vivo, rat
Experimental: In order to evaluate the effect of two inhibitory anti-PDGF-B antibodies in the rat monocrotaline model of pulmonary arterial hypertension, 2 studies were performed: study #1 was performed on 4-week Monocrotaline PAH Rats with Preventive Drug Treatment; and study #2 was performed on 5-weeks Monocrotaline Severe PAH Rats Survival with Therapeutic Drug Treatment (Tables 26-27).
Six to seven weeks old male Sprague Dawley rats were used. Rats were separated into treatment groups such that body weights were similar among different groups. […] On day one, rats were subcutaneously administered either 40 mg/kg of monocrotaline or 5 mL/kg or saline as control. On day 28, right ventricular systolic pressure (RVSP) was measured by right heart catheterization and RV hypertrophy was calculated by Fulton index as the weight ratio of RV to (LV+septum). In study #2, rats were subcutaneously administered either 60 mg/kg of monocrotaline or 5 mL/kg of saline. […] Small molecule group was orally administered macitentan at 30 mg/kg daily. Body weight change from day 0-35 were used for general toxicity assessment and animal mortality and median survival time were calculated by day 35.

hypoxia/sugen PAH mice [6] = assay type: in vivo, mouse; settings: Hypoxia/Sugen Mice - Therapeutic dose response; dose mg/kg: H4H13145P 1, Macitentan 30, REGN2176 25
Experimental: For the second study (Study 2), 12 to 14 weeks old male C57/BL mice, (Taconic) were used for the studies. Mice were separated into treatment groups by weight such that starting body weights were similar among different groups. […] Mice in hypoxia chamber were given VEGF receptor inhibitor Sugen5146 at 20 mg/kg subcutaneously once a week for 6 weeks. The mice were administered antibodies starting on day 21 for 3 weeks as outlined in Table 12. By the end of week 6, right ventricular systolic pressure (RVSP) was measured by right heart catheterization and RV hypertrophy was calculated by Fulton index as the weight ratio of RV and (LV+septum). […]
Mice were anesthetized with isoflurane and were kept at approximately 37° C. using a heated platform (Heated Hard Pad 1, Braintree Scientific) and circulating heated water pump (T/Pump Classic, Gaymar Industries). […] The catheter was connected to pressure/volume instrument (MPVS-300, Millar Instruments, Inc.) that measured heart rate as well as both diastolic and systolic right ventricular pressures. […] Readings were quantified from a 60 second interval of the pressure tracing (following a 2 minute period of recording to allow for pressure stabilization). The parameters analyzed were right ventricular systolic pressures (RVSP), heart rate (HR) and rate of right ventricular pressure rise (dP/dt max). […]

[7] = Monocrotaline Rat - Prevention, dose mg/kg: H4H13145P 25, Macitentan 30, Sotatercept 25
[8] = MCT 60 mg/kg rats, treatment from day 14, antibody SC twice per week, Macitentan 30 mg/kg daily gavage

T1 sequence (P01127 82-190 limits assumed): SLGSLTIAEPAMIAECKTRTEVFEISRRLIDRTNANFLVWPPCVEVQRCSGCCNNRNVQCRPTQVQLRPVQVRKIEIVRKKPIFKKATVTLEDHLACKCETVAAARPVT

Molecule: COc1ccc(-c2cncc(N[C@@H](C)c3cccc(NC(=O)c4cncc(C)c4)c3)n2)cc1OC [Seralutinib]
- IC50 (Human PDGF-DD): 0.027 µM
- IC50 (PDGF-DD): 0.006 µM
- IC50 (PDGF-BB [1]): 0.006 µM
- IC50 (Human PDGF-AA): 0.01 µM
- IC50 (PDGF-BB [2]; PASMC, 0.5 nM PDGF-BB constant, read-out: IC50 Calcium Flux, PDGF-BB): 0.01 µM
- inhibition in words (PDGF-BB [2]; PDGF-AA, PDGF-DD and PDGF-BB driven calcium flux and proliferation): fully inhibited
- IC50 (PDGF-BB [2]; range over PDGF-AA, PDGF-DD, PDGF-BB driven calcium flux and proliferation, read-out: IC50 values): 0.006 to 0.027 µM
- IC50 (PDGF-AA): 0.009 µM

Molecule: Cc1ccc(NC(=O)c2ccc(CN3CCN(C)CC3)cc2)cc1Nc1nccc(-c2cccnc2)n1 [Imatinib]
- IC50 (Human PDGF-AA): 0.27 µM

Molecule: CCCNS(=O)(=O)Nc1ncnc(OCCOc2ncc(Br)cn2)c1-c1ccc(Br)cc1 [Macitentan, reference compound]
- % reduction in RV hypertrophy (hypoxia/sugen PAH mice [3]): trend
- Reduction in RVSP (hypoxia/sugen PAH mice [3]): 19-25 mmHg
- % reduction in RV hypertrophy (monocrotaline rats [4]; [7]): trend
- lessening of right ventricular hypertrophy (Fulton Index) (monocrotaline rats [4]; monocrotaline 40 mg/kg, antibody 25 mg/kg SC 2x/week, Macitentan 30 mg/kg P.O. daily, versus isotype control): failed to reduce
- right ventricular systolic pressure elevation (monocrotaline rats [4]; monocrotaline 40 mg/kg, antibody 25 mg/kg SC 2x/week, Macitentan 30 mg/kg P.O. daily, week 4): significantly reduced
- Death # by day 35 (monocrotaline rats [5]; [8]): 11
- Survival rate by day 35 (monocrotaline rats [5]; [8]): 0%*
- median survival (monocrotaline rats [5]; [8]): 20 days
- survival (monocrotaline rats [5]; monocrotaline 60 mg/kg, antibody 25 mg/kg 2 times a week from day 14, macitentan 30 mg/kg daily, day 35): failed to prolong survival
- % reduction in RV hypertrophy (hypoxia/sugen PAH mice [6]): trend
- Reduction in RVSP (hypoxia/sugen PAH mice [6]): 19-25 mmHg

Molecule: Sotatercept: ACVRIIa-Fc, vessel remodeling comparator drug
- Reduction in RVSP (monocrotaline rats [4]; [7]): 14 mmHg

From patent US20240425574A1, “ANTI-PDGF-B ANTIBODIES AND PHARMACEUTICAL COMPOSITION THEREOF” (Regeneron Pharmaceuticals, Inc., priority 2021, published 2024)
